The text below walks through data of ChEMBL document CHEMBL1121498, “Conformationally restricted phenothiazine neuroleptics. 1. 3-(Dimethylamino)-1,2,3,4-tetrahydroazepino[3,2,1-kl]phenothiazine” (J Med Chem, 1980).

What is called IC50 is the concentration that inhibits the measured activity by half. What is called ED50 is the midpoint of the dose-response relation. Read a high ED50 as weaker potency.

Molecules are shown by their SMILES.

The species entered for assay [1] is Rattus norvegicus. The assay is described as follows: (§1) Compound was tested for inhibition of [3H]spiperone binding in membrane preparations obtained from rat corpus striatum. Type of assay: functional.
Assay [2] is filed under the species Rattus norvegicus. The assay is described as follows: Percentage increase in rat corpus striatal HVA synthesis. Type of assay: functional.
Assay [3] is described as follows: Compound was tested for inhibition of [3H]spiperone binding in membrane preparations obtained from calf caudate. Also on record: species or system Bos taurus.
Assay [4] concerns the target Dopamine receptor. Described as §1.
For assay [5], the system named is Rattus norvegicus. The assay is described as follows: Compound was evaluated for its ability to stimulate the synthesis of homovanillic acid (HVA) in rat in vivo. Format: functional.
For assay [6], the target named is Dopamine receptor (Bos taurus, UniProt Q95136+P20288).

For the molecule `CN(C)C1CCN2c3ccccc3Sc3cccc(c32)C1` (configuration not stated), the figures for the IC50 in assay [1] and in assay [3] were 2150 nM and 2400 nM, respectively. Besides, the Increase in assay [2] amounted to 24%.
As to `CN(C)CCCN1c2ccccc2Sc2ccccc21` [PROMAZINE], the IC50 in assay [4] was 1040 nM; in assay [6], 130 nM. This molecule also came in with an Increase in assay [2] of 250%. The molecule also yielded an ED50 in assay [5] of 200 µmol/kg.
